Test results: US8895568B2, “Compositions comprising substituted pteridines as agrochemicals” (Dow AgroSciences LLC, priority 2009, dated 2014)
Read-outs that look alike come from different tables or passages of the source.

Tests used:
Type in all cases: in vivo
Colletotricum lagenarium = experiment: Cucumber Anthracnose (COLLLA), foliar spray, percent disease control
[1] = system: DROSME, AEDSAE, LAPHEG, or HELIVI; experiment: Insecticidal activity, active if any of DROSME, AEDSAE, LAPHEG or HELIVI was controlled at 80% or more; details: read-out: >80% mortality on any insect species @ 4000 ppm
[2] = system: Pseudoperonospora cubensis; experiment: Cucumber Downy Mildew (PSPECU), foliar spray, percent disease control; details: read-out: PSPECU percent control
Cochliobolus sativus = experiment: Spot Blotch of Wheat (COCHSA), foliar spray, percent disease control; details: Bipolaris sorokiniana, read-out: COCHSA percent control

SMILES	pest or weed control at 200 µg/mL (Colletotricum lagenarium; foliar)	pest or weed control at 4000 ppm [1]	pest or weed control at 200 µg/mL ([2]; foliar)	pest or weed control at 200 µg/mL (Cochliobolus sativus; foliar)	pest or weed control at 200 µg/mL (Colletotricum lagenarium; foliar spray)	pest or weed control at 200 µg/mL ([2]; foliar spray)	pest or weed control at 200 µg/mL (Cochliobolus sativus; foliar spray)
Cc1nc2ncnc(NCCc3ccc(Oc4cc(C(F)(F)F)ccn4)cc3)c2nc1C [Compound 162]	0 to 49%	> 80%	80 to 100%	0 to 49%			
Cc1cc(Oc2cc(C(F)(F)F)ccn2)ccc1CCNc1ncnc2nccnc12 [Compound 129]	50 to 79%	> 80%	80 to 100%	50 to 79%			
Fc1cc(Oc2ccc(CCNc3ncnc4nccnc34)cc2)c(F)cn1 [Compound 108]	0 to 49%	> 80%	80 to 100%	0 to 49%			
FC(F)(F)COc1cccc(Oc2ccc(CCNc3ncnc4nccnc34)cc2)n1 [Compound 11, Pteridin-4-yl-(2-{4-[6-(2,2,2-trifluoroethoxy)-pyridin-2-yloxy]-phenyl}-ethyl)-amine]	0 to 49%	> 80%	50 to 79%	0 to 49%			
c1csc(Oc2ccc(CCNc3ncnc4nccnc34)cc2)n1 [Compound 48]	0 to 49%	> 80%	80 to 100%	0 to 49%			
CCOc1cc(CCNc2ncnc3nccnc23)ccc1Oc1ccc(C(F)(F)F)cn1 [Compound 157]	0 to 49%	> 80%	80 to 100%	0 to 49%			
FC(F)(F)c1ccc(Oc2ccc(CCNc3ncnc4nccnc34)cc2)nn1 [Compound 34]	0 to 49%	> 80%	80 to 100%	0 to 49%			
Cc1cnc2ncnc(NCCc3ccc(Oc4nccc(C(F)(F)F)n4)cc3)c2n1 [Compound 55]	50 to 79%	> 80%	80 to 100%	0 to 49%			
CCOc1cccc(Oc2ccc(CCNc3ncnc4nccnc34)cc2)n1 [Compound 12, {2-[4-(6-Ethoxypyridin-2-yloxy)-phenyl]-ethyl}-pteridin-4-yl-amine]	0 to 49%	> 80%	80 to 100%	0 to 49%			
FC(F)(F)COc1ccc(CCNc2ncnc3nccnc23)cn1 [Compound 232]		> 80%			50 to 79%	80 to 100%	0 to 49%
COc1ccnc(Oc2ccc(CCNc3ncnc4nccnc34)cc2)c1 [Compound 95]	80 to 100%	> 80%	80 to 100%	0 to 49%			
FC(F)(F)c1nc(Oc2ccc(CCNc3ncnc4nccnc34)cc2)ccc1Cl [Compound 92]	0 to 49%	> 80%	80 to 100%	0 to 49%			
COc1cc(CCNc2ncnc3nccnc23)ccc1Oc1cc(C(F)(F)F)ccn1 [Compound 51]	50 to 79%	> 80%	80 to 100%	0 to 49%			
Cc1cc(Oc2ccc(C(F)(F)F)cn2)c(C)cc1CCNc1ncnc2nccnc12 [Compound 156]	0 to 49%	> 80%	80 to 100%	0 to 49%			
Cc1nc(NCCc2ccc(Oc3cc(C(F)(F)F)ccn3)cc2)c2nc(C)c(C)nc2n1 [Compound 215]		> 80%			0 to 49%	80 to 100%	0 to 49%
